Data set [1] can be described thus: Metabolic stability in human liver microsomes assessed as half life. Type of data set: ADME, Microsome. Background: Liver microsomes are a subcellular fraction often used to study metabolism.
The nature of data set [2]: AUC (0 to infinity) in CD-1 mouse at 10 mg/kg, po. Type of data set: ADME, organism-based. Further details: time infinity, route oral, dose 10 mg/kg. The note with it: in vivo.
Data set [3] in a line: Cmax in CD-1 mouse at 10 mg/kg, po. Further details: route oral, dose 10 mg/kg. As to conditions: in vivo. Type of data set: ADME, organism-based.
Data set [4] in a line: Clearance in CD-1 mouse at 2 mg/kg, iv. It counts as ADME, organism-based. As to conditions: in vivo.
Data set [5] is described as follows: Half life in CD-1 mouse at 2 mg/kg, iv. It counts as ADME, organism-based. As to conditions: in vivo.
Data set [6] in a line: Volume of distribution in steady state in CD-1 mouse at 2 mg/kg, iv. It counts as ADME, organism-based. The note with it: in vivo, read-out: Vdss.
Data set [7] can be described thus: Oral bioavailability in CD-1 mouse at 10 mg/kg. It counts as ADME, organism-based. The note with it: in vivo.
Data set [8] is described as follows: Metabolic stability in dog liver microsomes assessed as unchanged parent compound remaining at 10 uM incubated for 60 mins in presence of [13C2,15N-glycine]GSH and NADPH by LC-MS/MS analysis. As to conditions: read-out: Stabilty. It counts as ADME, Canis lupus familiaris, Microsome.
A short description of data set [9]: Metabolic stability in dog liver microsomes assessed as unchanged parent compound remaining at 10 uM incubated for 60 mins in presence of [13C2,15N-glycine]GSH by LC-MS/MS analysis. It counts as ADME, Canis lupus familiaris, Microsome. As to conditions: read-out: Stabilty.
The target of data set [10] is Androgen receptor (Homo sapiens, UniProt P10275, F877L). As to the kind of experiment: Antagonist activity at AR F877L mutant (unknown origin) transfected in human LNCAP cells assessed as inhibition of R1881-stimulated receptor transcriptional activation measured after 20 to 24 hrs by Steady-Glo luciferase assay. Type of data set: cell-based.
For data set [11], the target named is T1, Androgen receptor (Homo sapiens, UniProt P10275).
T1 sequence (P10275 whole entry): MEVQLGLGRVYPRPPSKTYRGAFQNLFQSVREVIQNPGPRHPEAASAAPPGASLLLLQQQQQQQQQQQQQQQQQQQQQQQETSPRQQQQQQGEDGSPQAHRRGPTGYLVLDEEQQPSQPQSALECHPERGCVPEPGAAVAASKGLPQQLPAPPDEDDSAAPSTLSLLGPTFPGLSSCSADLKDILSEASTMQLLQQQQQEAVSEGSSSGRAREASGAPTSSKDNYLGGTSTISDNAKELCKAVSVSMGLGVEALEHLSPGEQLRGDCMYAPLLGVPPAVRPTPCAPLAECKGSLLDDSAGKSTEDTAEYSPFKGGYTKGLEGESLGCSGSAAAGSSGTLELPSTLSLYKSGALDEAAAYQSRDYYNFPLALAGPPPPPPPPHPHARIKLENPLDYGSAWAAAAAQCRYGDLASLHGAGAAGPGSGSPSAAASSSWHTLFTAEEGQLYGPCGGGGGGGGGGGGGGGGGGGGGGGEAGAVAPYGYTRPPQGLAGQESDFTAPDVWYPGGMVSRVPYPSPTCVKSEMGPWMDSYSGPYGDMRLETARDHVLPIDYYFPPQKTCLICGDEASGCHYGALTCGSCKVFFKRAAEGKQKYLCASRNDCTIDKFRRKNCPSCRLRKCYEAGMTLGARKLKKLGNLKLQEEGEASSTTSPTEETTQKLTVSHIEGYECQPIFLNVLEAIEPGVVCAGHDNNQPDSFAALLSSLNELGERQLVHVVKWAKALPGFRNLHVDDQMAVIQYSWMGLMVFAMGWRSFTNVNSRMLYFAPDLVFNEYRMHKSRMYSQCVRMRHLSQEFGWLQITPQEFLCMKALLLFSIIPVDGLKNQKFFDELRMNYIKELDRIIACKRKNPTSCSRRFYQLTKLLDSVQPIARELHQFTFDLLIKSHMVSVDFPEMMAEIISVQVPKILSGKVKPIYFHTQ
It counts as tissue-based, LNCaP.
Description: Antagonist activity at wild type androgen receptor in castration-resistant human LNCaP cells assessed as inhibition of R1881-stimulated receptor transcriptional activation measured after 20 to 24 hrs by Steady-Glo luciferase assay

Androgen receptor (Homo sapiens, UniProt P10275, F877L), sequence (P10275 whole entry F877L): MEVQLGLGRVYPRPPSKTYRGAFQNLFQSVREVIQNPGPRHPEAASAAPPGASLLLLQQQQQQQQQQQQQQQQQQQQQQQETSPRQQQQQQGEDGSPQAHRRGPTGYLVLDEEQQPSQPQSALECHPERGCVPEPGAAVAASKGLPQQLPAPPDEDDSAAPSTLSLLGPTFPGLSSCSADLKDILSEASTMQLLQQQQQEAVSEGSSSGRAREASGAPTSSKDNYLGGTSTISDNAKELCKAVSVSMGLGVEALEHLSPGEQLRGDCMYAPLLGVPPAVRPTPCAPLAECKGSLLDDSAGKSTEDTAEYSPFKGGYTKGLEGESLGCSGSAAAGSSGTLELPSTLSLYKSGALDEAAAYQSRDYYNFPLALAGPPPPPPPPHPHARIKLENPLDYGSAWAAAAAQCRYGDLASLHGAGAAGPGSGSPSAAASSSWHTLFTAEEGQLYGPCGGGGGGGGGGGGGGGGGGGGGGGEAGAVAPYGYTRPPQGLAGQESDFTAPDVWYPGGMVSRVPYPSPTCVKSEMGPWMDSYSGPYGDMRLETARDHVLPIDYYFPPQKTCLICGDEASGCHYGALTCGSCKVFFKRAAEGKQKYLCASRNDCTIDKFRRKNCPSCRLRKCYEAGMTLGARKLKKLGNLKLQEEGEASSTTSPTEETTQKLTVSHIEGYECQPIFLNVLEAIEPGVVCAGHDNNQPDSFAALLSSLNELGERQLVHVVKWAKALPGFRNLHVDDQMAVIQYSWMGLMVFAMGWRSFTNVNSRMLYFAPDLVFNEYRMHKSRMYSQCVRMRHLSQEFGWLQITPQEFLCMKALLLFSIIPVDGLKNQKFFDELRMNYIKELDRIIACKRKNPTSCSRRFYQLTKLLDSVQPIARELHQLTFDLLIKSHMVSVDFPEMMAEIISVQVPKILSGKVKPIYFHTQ

The half-life is the time needed for the level to fall by half in the phase considered. Broadly, the AUC(0-inf) is the area under the concentration-time curve extrapolated to infinity. Low readings indicate low exposure, high ones high exposure. The term Cmax denotes the maximum level reached in the sampled fluid or tissue. Usually clearance stands for the rate of elimination divided by the concentration. Turning to `CNC(=O)c1cc2c(cc1F)CC1(C2)C(=O)N(c2ccc(C#N)c(C(F)(F)F)c2)C(=S)N1C(C)C` (stereo not given), the half-life in data set [1] is > 3 h; in data set [5] it was 14.8 h. Also, the AUC(0-inf) in data set [2] is 107000 ng·h/mL. This compound showed a maximum concentration (Cmax) in data set [3] of 8.85 µM. The compound also had a clearance in data set [4] of 1.6 mL/min/kg. Moreover, the Vd in [6] is 1.7 L/kg. Besides, the bioavailability in [7] is 102%.
In the case of `CN1C(=S)N(c2cnc(C#N)c(C(F)(F)F)c2)C(=O)C12Cc1ccc(OC3CCNCC3)cc1C2` (stereo not given), the figures for the half-life in [1] and in [5] were > 3 h and 16.7 h, respectively. The compound further displayed an AUC(0-inf) in data set [2] of 15200 ng·h/mL. This compound came in with a Cmax in data set [3] of 0.92 µM. In data set [4], this compound had a clearance of 11.5 mL/min/kg. For the same compound, the Vd in [6] stood at 16.3 L/kg. Also, the bioavailability in data set [7] was 97%. Further, the remaining at 1 h, 10 µM in data set [8] is 98.4%; in data set [9], 100%.
In the case of `CNC(=O)c1cc2c(cc1F)CC1(C2)C(=O)N(c2cnc(C#N)c(C(F)(F)F)c2)C(=S)N1C(C)C` (stereo not given), the half-life is > 3 h in [1] and 19.5 h in [5]. The same compound gave an AUC(0-inf) in data set [2] of 27000 ng·h/mL. In data set [3], the maximum concentration (Cmax) stood at 3.69 µM. Besides, the clearance in data set [4] is 3.4 mL/min/kg. In addition, the Vd in data set [6] is 4.8 L/kg. For the same compound, in [7], the bioavailability stood at 61%.
As a reminder, the IC50 is the concentration at which inhibition is half-maximal. As for `CNC(=O)c1ccc2c(c1)CC1(C2)C(=O)N(c2ccc(C#N)c(C(F)(F)F)c2)C(=O)N1C` (stereo not given), the IC50 at Androgen receptor [10] was 1.66 µM; at Androgen receptor [11], > 30 µM.
Take `CNC(=O)c1cc2c(cc1F)C[C@@]1(C2)C(=O)N(c2ccc(C#N)c(C(F)(F)F)c2)C(=S)N1C(C)C`: the half-life in [1] was > 3 h; in [5], 5.2 h. Further, the AUC(0-inf) in data set [2] was 50400 ng·h/mL. The compound further came in with a Cmax in [3] of 5.81 µM. Moreover, the clearance in data set [4] worked out at 3 mL/min/kg. In addition, the Vd in data set [6] is 1.8 L/kg. Besides, the bioavailability in [7] is 91%.
With `CN1C(=S)N(c2cnc(C#N)c(C(F)(F)F)c2)C(=O)C12Cc1ccc(O)cc1C2` (stereo not given), the remaining at 1 h, 10 µM in data set [8] is 52.3%; in data set [9], 100%.
Regarding `N#Cc1ncc(N2C(=O)C3(CCC3)N(c3ccc(O)cc3)C2=S)cc1C(F)(F)F`, in data set [8], the remaining at 1 h, 10 µM came to 78.7%.
Turning to `CNC(=O)c1cc2c(cc1F)C[C@]1(C2)C(=O)N(c2ccc(C#N)c(C(F)(F)F)c2)C(=S)N1C(C)C`, the half-life in data set [1] was > 3 h; in data set [5], 10.3 h. In data set [2], this compound displayed an AUC(0-inf) of 104000 ng·h/mL. This compound displayed a Cmax in [3] of 5.86 µM. The clearance in data set [4] was 0.9 mL/min/kg. In addition, the Vd in data set [6] came out at 1.7 L/kg. Further, in data set [7], the bioavailability came out at 63%.
For `CNC(=O)c1ccc2c(c1)CC1(C2)NC(=S)N(c2cnc(C#N)c(C(F)(F)F)c2)C1=O` (stereo not given), the half-inhibitory concentration (IC50) at Androgen receptor [10] and against Androgen receptor [11] was > 15 µM each time.
For the compound `CNC(=O)c1cc2c(cc1F)C[C@@]1(C2)C(=O)N(c2cnc(C#N)c(C(F)(F)F)c2)C(=S)N1C(C)C`, the half-life in [1] is 1.97 h; in data set [5] it was 6.9 h. The compound also displayed an AUC(0-inf) in data set [2] of 39100 ng·h/mL. In data set [3], this compound gave a peak concentration (Cmax) of 3.7 µM. Besides, the clearance in data set [4] amounted to 4 mL/min/kg. Besides, the Vd in data set [6] came to 2.3 L/kg. Moreover, the bioavailability in [7] stood at 92%.
For the compound `CNC(=O)c1ccc2c(c1)CC1(C2)NC(=S)N(c2ccc(C#N)c(C(F)(F)F)c2)C1=O` (stereo not given), the concentration for half-maximal inhibition (IC50) was 5.01 µM at Androgen receptor [10] and 11.2 µM against Androgen receptor [11].
Take `CNC(=O)c1cc2c(cc1F)C[C@]1(C2)C(=O)N(c2cnc(C#N)c(C(F)(F)F)c2)C(=S)N1C(C)C`: the half-life in data set [1] is 2.25 h; in data set [5], 15.8 h. Besides, in [2], the AUC(0-inf) came out at 99400 ng·h/mL. This compound came in with a peak concentration (Cmax) in [3] of 6.1 µM. This compound came in with a clearance in data set [4] of 1.3 mL/min/kg. Besides, the Vd in data set [6] was determined as 1.9 L/kg. Further, the bioavailability in data set [7] stood at 80%.

(Values after ChEMBL document CHEMBL4834497, “Spirocyclic Thiohydantoin Antagonists of F877L and Wild-Type Androgen Receptor for Castration-Resistant Prostate Cancer” (ACS Med Chem Lett, 2021).)
